Laboratory results reported in PMC4692507, “Purification and Characterization of Suicin 65, a Novel Class I Type B Lantibiotic Produced by Streptococcus suis” (PLoS ONE, 2015).
≈ marks a conversion by molar mass, not a printed value.

What was measured:
[1] = test system: S. suis 1054471; assay: Resistance to antibiotics (MIC-based class); format: cell-based, Streptococcus suis; settings: strain 1054471; resistant if MIC ≥ 400 μg/ml
Excerpt: (§1) Table 1 Strains of S. suis used in this study, their characteristics and susceptibility to S. suis 65. | column: Resistance to antibiotics ^1 / Erythromycin; Resistance to antibiotics ^1 / Tetracycline

[2] = test system: S. suis 1088563; assay: Resistance to antibiotics (MIC-based class); format: cell-based, Streptococcus suis; settings: strain 1088563; resistant if MIC ≥ 400 μg/ml
Excerpt: as §1

[3] = test system: S. suis 31533; assay: Resistance to antibiotics (MIC-based class); format: cell-based, Streptococcus suis; settings: strain 31533; resistant if MIC ≥ 400 μg/ml
Excerpt: as §1

[4] = test system: S. suis LPH4; assay: Resistance to antibiotics (MIC-based class); format: cell-based, Streptococcus suis; settings: strain LPH4; resistant if MIC ≥ 400 μg/ml
Excerpt: as §1

[5] = test system: S. suis MNCM01; assay: Resistance to antibiotics (MIC-based class); format: cell-based, Streptococcus suis; settings: strain MNCM01; resistant if MIC ≥ 400 μg/ml
Excerpt: as §1

[6] = test system: S. suis MNCM06; assay: Resistance to antibiotics (MIC-based class); format: cell-based, Streptococcus suis; settings: strain MNCM06; resistant if MIC ≥ 400 μg/ml
Excerpt: as §1

[7] = test system: S. suis P1/7; assay: Resistance to antibiotics (MIC-based class); format: cell-based, Streptococcus suis; settings: strain P1/7; resistant if MIC ≥ 400 μg/ml
Excerpt: as §1

[8] = test system: S. suis 65; assay: Antibiotic susceptibility of S. suis 65 (broth microdilution MIC); format: cell-based; settings: Streptococcus suis; S. suis 65, THB, 96-well plates, 24 h at 37°C, growth recorded visually; three independent experiments
Experimental: The susceptibility of S. suis 65 to antibiotics (amoxicillin, ceftiofur, and penicillin G) was determined as follows. Briefly, a 24-h bacterial culture in THB was diluted in fresh broth medium to obtain an optical density at 660 nm (OD660) of 0.2. Equal volumes (100 μl) of bacteria and serial dilutions of antibiotics in THB were mixed in the wells of 96-well plates. Wells with no bacteria or no antibiotics were used as controls. Following a 24-h incubation at 37°C, bacterial growth was recorded visually. Minimal inhibitory concentration (MIC) values (μg/ml) were expressed as the lowest concentration at which no growth occurred. The MIC values were determined in three independent experiments.

Structure (SMILES)	MIC [8]	Resistance to antibiotics [1]	Resistance to antibiotics [2]	Resistance to antibiotics [3]	Resistance to antibiotics [4]	Resistance to antibiotics [5]	Resistance to antibiotics [6]	Resistance to antibiotics [7]
CC[C@H]1OC(=O)[C@H](C)[C@@H](O[C@H]2C[C@@](C)(OC)[C@@H](O)[C@H](C)O2)[C@H](C)[C@@H](O[C@@H]2O[C@H](C)C[C@H](N(C)C)[C@H]2O)[C@](C)(O)C[C@@H](C)C(=O)[C@H](C)[C@@H](O)[C@]1(C)O [Erythromycin]		Sensitive (A strain was considered resistant if the MIC was ≥ 400 μg/ml)	Resistant (A strain was considered resistant if the MIC was ≥ 400 μg/ml)	Sensitive (A strain was considered resistant if the MIC was ≥ 400 μg/ml)	Resistant (A strain was considered resistant if the MIC was ≥ 400 μg/ml)	Resistant (A strain was considered resistant if the MIC was ≥ 400 μg/ml)	Resistant (A strain was considered resistant if the MIC was ≥ 400 μg/ml)	Sensitive (A strain was considered resistant if the MIC was ≥ 400 μg/ml)
CN(C)[C@@H]1C(O)=C(C(N)=O)C(=O)[C@@]2(O)C(O)=C3C(=O)c4c(O)cccc4[C@@](C)(O)[C@H]3C[C@@H]12 [Tetracycline]		Resistant (A strain was considered resistant if the MIC was ≥ 400 μg/ml)	Resistant (A strain was considered resistant if the MIC was ≥ 400 μg/ml)	Sensitive (A strain was considered resistant if the MIC was ≥ 400 μg/ml)	Resistant (A strain was considered resistant if the MIC was ≥ 400 μg/ml)	Resistant (A strain was considered resistant if the MIC was ≥ 400 μg/ml)	Resistant (A strain was considered resistant if the MIC was ≥ 400 μg/ml)	Sensitive (A strain was considered resistant if the MIC was ≥ 400 μg/ml)

Now from value to compound, other results behind:

MIC [8]	Structure (SMILES)	Resistance to antibiotics [1]	Resistance to antibiotics [2]	Resistance to antibiotics [3]	Resistance to antibiotics [4]	Resistance to antibiotics [5]	Resistance to antibiotics [6]	Resistance to antibiotics [7]
4.9 ng/mL (≈ 0.0134 µM)	CC1(C)S[C@@H]2[C@H](NC(=O)[C@H](N)c3ccc(O)cc3)C(=O)N2[C@H]1C(=O)O [amoxicillin]							
9.8 ng/mL (≈ 0.0293 µM)	CC1(C)S[C@@H]2[C@H](NC(=O)Cc3ccccc3)C(=O)N2[C@H]1C(=O)O [penicillin G]							
9.8 ng/mL (≈ 0.0187 µM)	CO/N=C(\C(=O)N[C@@H]1C(=O)N2C(C(=O)O)=C(CSC(=O)c3ccco3)CS[C@H]12)c1csc(N)n1 [ceftiofur]							
